Data from article PMC11124822, “Discovery and Anticancer Screening of Novel Oxindole-Based Derivative Bearing Pyridyl Group as Potent and Selective Dual FLT3/CDK2 Kinase Inhibitor” (Pharmaceuticals, 2024).

Tests used:
[1] = tested on: HOP-62; assay: NCI-60 antiproliferative screen (SRB); type: cell-based, human; settings: Homo sapiens; 10 µM single dose, 48 h; HOP-62 (NSCLC); read-out: Growth inhibition (%)
[2] = tested on: HOP-92; assay: NCI-60 antiproliferative screen (SRB); type: cell-based, human; settings: Homo sapiens; 10 µM single dose, 48 h; HOP-92 (NSCLC); read-out: Growth inhibition (%)
[3] = tested on: NCI-H226; assay: NCI-60 antiproliferative screen (SRB); type: cell-based, human; settings: Homo sapiens; 10 µM single dose, 48 h; NCI-H226 (NSCLC); read-out: Growth inhibition (%)
[4] = tested on: NCI-H23; assay: NCI-60 antiproliferative screen (SRB); type: cell-based, human; settings: Homo sapiens; 10 µM single dose, 48 h; NCI-H23 (NSCLC); read-out: Growth inhibition (%)
[5] = tested on: NCI-H322M; assay: NCI-60 antiproliferative screen (SRB); type: cell-based, human; settings: Homo sapiens; 10 µM single dose, 48 h; NCI-H322M (NSCLC); read-out: Growth inhibition (%)
[6] = tested on: NCI-H460; assay: NCI-60 antiproliferative screen (SRB); type: cell-based, human; settings: Homo sapiens; 10 µM single dose, 48 h; NCI-H460 (NSCLC); read-out: Growth inhibition (%)
[7] = tested on: HCC-2998; assay: NCI-60 antiproliferative screen (SRB); type: cell-based, human; settings: Homo sapiens; 10 µM single dose, 48 h; HCC-2998 (Colon); read-out: Growth inhibition (%)
[8] = tested on: HT29; assay: NCI-60 antiproliferative screen (SRB); type: cell-based, human; settings: Homo sapiens, HT-29; 10 µM single dose, 48 h; HT29 (Colon); read-out: Growth inhibition (%)
[9] = tested on: SW-620; assay: NCI-60 antiproliferative screen (SRB); type: cell-based, human; settings: Homo sapiens; 10 µM single dose, 48 h; SW-620 (Colon); read-out: Growth inhibition (%)
[10] = tested on: SF-268; assay: NCI-60 antiproliferative screen (SRB); type: cell-based, human; settings: Homo sapiens; 10 µM single dose, 48 h; SF-268 (CNS); read-out: Growth inhibition (%)
[11] = tested on: SF-539; assay: NCI-60 antiproliferative screen (SRB); type: cell-based, human; settings: Homo sapiens; 10 µM single dose, 48 h; SF-539 (CNS); read-out: Growth inhibition (%)
[12] = tested on: U251; assay: NCI-60 antiproliferative screen (SRB); type: cell-based, human; settings: Homo sapiens, U-251; 10 µM single dose, 48 h; U251 (CNS); read-out: Growth inhibition (%)
[13] = tested on: LOX IMVI; assay: NCI-60 antiproliferative screen (SRB); type: cell-based, human; settings: Homo sapiens; 10 µM single dose, 48 h; LOX IMVI (Melanoma); read-out: Growth inhibition (%)
[14] = tested on: MALME-3M; assay: NCI-60 antiproliferative screen (SRB); type: cell-based, human; settings: Homo sapiens; 10 µM single dose, 48 h; MALME-3M (Melanoma); read-out: Growth inhibition (%)
[15] = tested on: MDA-MB-435; assay: NCI-60 antiproliferative screen (SRB); type: cell-based, human; settings: Homo sapiens; 10 µM single dose, 48 h; MDA-MB-435 (Melanoma); read-out: Growth inhibition (%)
[16] = tested on: SK-MEL-5; assay: NCI-60 antiproliferative screen (SRB); type: cell-based, human; settings: Homo sapiens; 10 µM single dose, 48 h; SK-MEL-5 (Melanoma); read-out: Growth inhibition (%)
[17] = tested on: IGROV1; assay: NCI-60 antiproliferative screen (SRB); type: cell-based, human; settings: Homo sapiens, IGROV-1; 10 µM single dose, 48 h; IGROV1 (Ovarian); read-out: Growth inhibition (%)
[18] = tested on: 786-0; assay: NCI-60 antiproliferative screen (SRB); type: cell-based, human; settings: Homo sapiens; 10 µM single dose, 48 h; 786-0 (Renal); read-out: Growth inhibition (%)
[19] = tested on: ACHN; assay: NCI-60 antiproliferative screen (SRB); type: cell-based, human; settings: Homo sapiens; 10 µM single dose, 48 h; ACHN (Renal); read-out: Growth inhibition (%)
[20] = tested on: RXF 393; assay: NCI-60 antiproliferative screen (SRB); type: cell-based, human; settings: Homo sapiens; 10 µM single dose, 48 h; RXF 393 (Renal); read-out: Growth inhibition (%)
[21] = tested on: TK-10; assay: NCI-60 antiproliferative screen (SRB); type: cell-based, human; settings: Homo sapiens; 10 µM single dose, 48 h; TK-10 (Renal); read-out: Growth inhibition (%)
[22] = tested on: DU-145; assay: NCI-60 antiproliferative screen (SRB); type: cell-based, human; settings: Homo sapiens; 10 µM single dose, 48 h; DU-145 (Prostate); read-out: Growth inhibition (%)
[23] = tested on: MCF7; assay: NCI-60 antiproliferative screen (SRB); type: cell-based, human; settings: Homo sapiens; 10 µM single dose, 48 h; MCF7 (Breast); read-out: Growth inhibition (%)
[24] = tested on: HS 578T; assay: NCI-60 antiproliferative screen (SRB); type: cell-based, human; settings: Homo sapiens; 10 µM single dose, 48 h; HS 578T (Breast); read-out: Growth inhibition (%)
[25] = tested on: BT-549; assay: NCI-60 antiproliferative screen (SRB); type: cell-based, human; settings: Homo sapiens; 10 µM single dose, 48 h; BT-549 (Breast); read-out: Growth inhibition (%)
[26] = tested on: T-47D; assay: NCI-60 antiproliferative screen (SRB); type: cell-based, human; settings: Homo sapiens, T47D; 10 µM single dose, 48 h; T-47D (Breast); read-out: Growth inhibition (%)
[27] = tested on: NCI-60 human cancer cell lines; assay: NCI-60 screen, full panel summary; type: cell-based; settings: 10 µM single dose; for Mean Growth Percent: all NCI-60 cell lines
Experimental: In a comprehensive test, compounds were assayed at a single dose concentration (10^−5 M) in the full panel of NCI-60 cancer cell lines.

[28] = tested on: SR; assay: NCI-60 antiproliferative screen (SRB); settings: Homo sapiens, 48 h, read-out: Growth inhibition (%)
Experimental: Anticancer activity was tested against 60 cancer cell lines (NCI-60) after 48h treatments with a single dosage of 10 μM of compounds by using sulforhodamine B assay [39] on the traditional 96-well platform. […] The human cancer cell lines of the NCI-60 panel are grown in RPMI 1640 medium supplemented with 5% FBS (fetal bovine serum) and 2 mM L-glutamine. […] For further analysis of promising compounds, five dose screens were performed against the NCI-60 panel. Drug treatments are performed in 5 doses using 10-fold or ½ log dose dilutions.

[29] = tested on: SNB-75; assay: NCI-60 antiproliferative screen (SRB); settings: Homo sapiens, SNB-75, 48 h, read-out: Growth inhibition (%)

SMILES	inhibition at 10 µM [1] [%]	inhibition at 10 µM [2] [%]	inhibition at 10 µM [3] [%]	inhibition at 10 µM [4] [%]	inhibition at 10 µM [5] [%]	inhibition at 10 µM [6] [%]	inhibition at 10 µM [7] [%]	inhibition at 10 µM [8] [%]	inhibition at 10 µM [10] [%]	inhibition at 10 µM [11] [%]	inhibition at 10 µM [12] [%]	inhibition at 10 µM [14] [%]	inhibition at 10 µM [15] [%]	inhibition at 10 µM [16] [%]	inhibition at 10 µM [17] [%]	inhibition at 10 µM [18] [%]	inhibition at 10 µM [19] [%]	inhibition at 10 µM [21] [%]	inhibition at 10 µM [22] [%]	inhibition at 10 µM [23] [%]	further results
O=C1Nc2ccccc2C1=Cc1ccc(OCc2ccccc2)cc1 (mixture of isomers) [Compound 5a, (E/Z)-3-[4-(Benzyloxy)benzylidene] indolin-2-one]	-4.06	-7	4.45	-2.42	0.44	-8.64	-13.1	-6.64	-1.74	-3.4	-3.49	-7.59	-2.33	1.96	-9.53	3.67	-4.27	-8.25	-4.38	15.8	inhibition at 10 µM [9]: -7.33%; inhibition at 10 µM [13]: -7.76%; inhibition at 10 µM [20]: -16.2%; inhibition at 10 µM [24]: -6.13%; inhibition at 10 µM [25]: -5.74%; inhibition at 10 µM [26]: 0.85%; Positive Cytostatic Effect (cell lines with percent growth from 0 to 50 / total number of cell lines) [27]: 0/59; Positive Cytotoxic Effect (cell lines with percent growth of <0 / total number of cell lines) [27]: 0/59; Sensitive/Total Cell Lines [27]: 0/59; antiproliferative activity (in words) [27]: weak antiproliferative activity; Mean Growth Percent [27]: −1.00; inhibition at 10 µM ([27]; Homo sapiens, read-out: Range of Growth Inhibition on All Cells): -16.2 to 15.8%; inhibition at 10 µM [28]: 14.6%; inhibition at 10 µM [29]: 14.6%
O=C1Nc2ccccc2C1=Cc1ccc(OCc2ccccn2)cc1 (mixture of isomers) [Compound 5e, (E/Z)-3-[4-(Pyridin-2-ylmethoxy]benzylidene) indolin-2-one]	25.6	69	40.8	21.4	29.5	15	1.6	16.2	27.3	35.3	46.5	25.4	10.1	48.4	36.8	18	33.6	12.7	20.3	50.8	inhibition at 10 µM [20]: 44.8%; inhibition at 10 µM [25]: 41.2%; inhibition at 10 µM [26]: 54.9%; Positive Cytostatic Effect (cell lines with percent growth from 0 to 50 / total number of cell lines) [27]: 11/56; Positive Cytotoxic Effect (cell lines with percent growth of <0 / total number of cell lines) [27]: 0/56; Sensitive/Total Cell Lines [27]: 11/56; The Most Sensitive Cell Line [27]: HOP-92; Mean Growth Percent [27]: 33.37; inhibition at 10 µM [28]: 57.7%; inhibition at 10 µM [29]: 34.7%
O=C1Nc2ccc(Cl)cc2C1=Cc1ccc(OCc2ccccn2)cc1 (mixture of isomers) [Compound 5g, (E/Z)-5-Chloro-3-[4-(pyridin-2-ylmethoxy)benzylidene] indolin-2-one]	54.4	27.9	98.7	37.8	35.8	84	-4.51	32.5	20.7	26.5	76.3	61.5	23.1	10.5	45.4	74.3	43	9.89	12.2	71.1	inhibition at 10 µM [9]: 52.5%; inhibition at 10 µM [13]: 43.5%; inhibition at 10 µM [24]: 85.2%; inhibition at 10 µM [25]: 21.2%; inhibition at 10 µM [26]: 31%; Positive Cytostatic Effect (cell lines with percent growth from 0 to 50 / total number of cell lines) [27]: 17/59; Positive Cytotoxic Effect (cell lines with percent growth of <0 / total number of cell lines) [27]: 1/59; Sensitive/Total Cell Lines [27]: 18/59; The Most Sensitive Cell Line [27]: OVCAR-4; number of cell lines with cytostatic effects [27]: 17; number of cell lines with cytotoxic effects [27]: 1; Mean Growth Percent [27]: 38.63; inhibition at 10 µM [28]: 45.1%; inhibition at 10 µM [29]: -12.6%
O=C1Nc2cc(Cl)ccc2C1=Cc1ccc(OCc2ccccn2)cc1 (mixture of isomers) [Compound 5h, (E/Z)-6-Chloro-3-[4-(pyridin-2-ylmethoxy)benzylidene]indolin-2-one]	18.9	35.8	48.6	47.4	24.7	56.7	16.7	19.7	23.2	57.7	61.6	18	23.9	24	26.2	18.7	9.61	-0.24	39.6	63.7	inhibition at 10 µM [20]: 38.2%; inhibition at 10 µM [25]: 33.8%; inhibition at 10 µM [26]: 38%; Positive Cytostatic Effect (cell lines with percent growth from 0 to 50 / total number of cell lines) [27]: 11/56; Positive Cytotoxic Effect (cell lines with percent growth of <0 / total number of cell lines) [27]: 0/56; Sensitive/Total Cell Lines [27]: 11/56; The Most Sensitive Cell Line [27]: OVCAR-4; Mean Growth Percent [27]: 30.77; inhibition at 10 µM [28]: 42.8%; inhibition at 10 µM [29]: 63.3%
